The values that follow are results of earlier work, collected in US20200179352A1, “USE OF VALBENAZINE FOR TREATING LEVODOPA-INDUCED DYSKINESIA” (Neurocrine Biosciences, Inc., priority 2017, published 2020).

The structures appear in SMILES notation.

The conditions of this series: series of 448 patients with various hyperkinetic movement disorders treated with tetrabenazine from 1997-2004.

With `COc1cc2c(cc1OC)C1CC(=O)C(CC(C)C)CN1CC2` (stereo not shown) [tetrabenazine, 3-isobutyl-9,10-dimethoxy-1,3,4,6,7,11b-hexahydro-2H-pyrido[2,1-a]isoquinolin-2-one], the “adverse event rate for parkinsonism” value was 15.4%.
